# Measured values taken from patent US6153624A, “Pyrrolidine and piperidine derivatives and treatment of neurodegenerative disorders” (Hoffman-LaRoche Inc., priority 1998, dated 2000).
# Target: T1, N-methyl-D-aspartate (NMDA) receptor containing the NR2B subunit (Rattus norvegicus, UniProt P35439+Q00960)
# T1 construct: Membranes were prepared by homogenization of the whole brain minus cerebellum and medulla oblongata; from tissue; host or cells: rat whole brain minus cerebellum and medulla oblongata, membranes
# Assay: 3H-Ro 25-6981 binding (displacement) to rat brain membranes
# Design: species or system rat (male Fullinsdorf albino)
# Conditions: 3H-Ro 25-6981 5 nM, 2 hours at 4° C., pH 7.4, rat whole brain minus cerebellum and medulla oblongata
# Text: In the following test RO 25-6981 ([R-(R*,S*)]-a-(4-Hydroxy-phenyl)-b-methyl-4-(phenyl-methyl)-1-piperidine propanol)has been used as a high and selective blocker of N-methyl-D-aspartate (NMDA) receptor containing the NR2B subjunit. The interaction of RO 25-6981 with NMDA receptors is characterized by the described test in vitro.
# 3H-Ro 25-6981 binding (Ro 25-6981 is [R-(R*,S*)]-a-(4-Hydroxy-phenyl)-b-methyl-4-(phenyl-methyl)-1-piperidine propanol)
# Male Fullinsdorf albino rats weighing between 150-200 g were used. Membranes were prepared by homogenization of the whole brain minus cerebellum and medulla oblongata with a Polytron (10.000 rpm, 30 seconds), in 25 volumes of a cold Tris-HCl 50 mM, EDTA 10 mM, pH 7.1 buffer. The homogenate was centrifuged at 48.000 g for 10 minutes at 4° C. The pellet was resuspended using the Polytron in the same volume of buffer and the homogenate was incubated at 37° C. for 10 minutes. After centrifugation the pellet was homogenized in the same buffer and frozen at -80° C. for at least 16 hours but not more than 10 days. For the binding assay the homogenate was thawed at 37° C., centrifuged and the pellet was washed three times as above in a Tris-HCl 5 mM, pH 7.4 cold buffer. The final pellet was resuspended in the same buffer and used at a final concentration of 200 μg of protein/ml.
# 3H-Ro 25-6981 binding experiments were performed using a Tris-HCl 50 mM, pH 7.4 buffer. For displacement experiments 5 nM of 3H-Ro 25-6981 were used and non specific binding was measured using 10 μm of tetrahydroisoquinoline and usually it accounts for 10% of the total. The incubation time was 2 hours at 4° C. and the assay was stopped by filtration on Whatmann GF/B glass fiber filters (Unifilter-96, Packard, Zurich, Switzerland). The filters were washed 5 times with cold buffer. The radioactivity on the filter was counted on a Packard Top-count microplate scintillation counter after addition of […] of microscint 40 (Canberra Packard S. A., Zurich, Switzerland).
# The effects of compounds were measured using a minimum of 8 concentrations and repeated at least once. The pooled normalized values were analyzed using a non-linear regression calculation program which provide IC50 with their relative upper and lower 95% confidence limits (RS1, BBN, USA).
# T1 sequence (Q00960 27-1482, other chains not shown): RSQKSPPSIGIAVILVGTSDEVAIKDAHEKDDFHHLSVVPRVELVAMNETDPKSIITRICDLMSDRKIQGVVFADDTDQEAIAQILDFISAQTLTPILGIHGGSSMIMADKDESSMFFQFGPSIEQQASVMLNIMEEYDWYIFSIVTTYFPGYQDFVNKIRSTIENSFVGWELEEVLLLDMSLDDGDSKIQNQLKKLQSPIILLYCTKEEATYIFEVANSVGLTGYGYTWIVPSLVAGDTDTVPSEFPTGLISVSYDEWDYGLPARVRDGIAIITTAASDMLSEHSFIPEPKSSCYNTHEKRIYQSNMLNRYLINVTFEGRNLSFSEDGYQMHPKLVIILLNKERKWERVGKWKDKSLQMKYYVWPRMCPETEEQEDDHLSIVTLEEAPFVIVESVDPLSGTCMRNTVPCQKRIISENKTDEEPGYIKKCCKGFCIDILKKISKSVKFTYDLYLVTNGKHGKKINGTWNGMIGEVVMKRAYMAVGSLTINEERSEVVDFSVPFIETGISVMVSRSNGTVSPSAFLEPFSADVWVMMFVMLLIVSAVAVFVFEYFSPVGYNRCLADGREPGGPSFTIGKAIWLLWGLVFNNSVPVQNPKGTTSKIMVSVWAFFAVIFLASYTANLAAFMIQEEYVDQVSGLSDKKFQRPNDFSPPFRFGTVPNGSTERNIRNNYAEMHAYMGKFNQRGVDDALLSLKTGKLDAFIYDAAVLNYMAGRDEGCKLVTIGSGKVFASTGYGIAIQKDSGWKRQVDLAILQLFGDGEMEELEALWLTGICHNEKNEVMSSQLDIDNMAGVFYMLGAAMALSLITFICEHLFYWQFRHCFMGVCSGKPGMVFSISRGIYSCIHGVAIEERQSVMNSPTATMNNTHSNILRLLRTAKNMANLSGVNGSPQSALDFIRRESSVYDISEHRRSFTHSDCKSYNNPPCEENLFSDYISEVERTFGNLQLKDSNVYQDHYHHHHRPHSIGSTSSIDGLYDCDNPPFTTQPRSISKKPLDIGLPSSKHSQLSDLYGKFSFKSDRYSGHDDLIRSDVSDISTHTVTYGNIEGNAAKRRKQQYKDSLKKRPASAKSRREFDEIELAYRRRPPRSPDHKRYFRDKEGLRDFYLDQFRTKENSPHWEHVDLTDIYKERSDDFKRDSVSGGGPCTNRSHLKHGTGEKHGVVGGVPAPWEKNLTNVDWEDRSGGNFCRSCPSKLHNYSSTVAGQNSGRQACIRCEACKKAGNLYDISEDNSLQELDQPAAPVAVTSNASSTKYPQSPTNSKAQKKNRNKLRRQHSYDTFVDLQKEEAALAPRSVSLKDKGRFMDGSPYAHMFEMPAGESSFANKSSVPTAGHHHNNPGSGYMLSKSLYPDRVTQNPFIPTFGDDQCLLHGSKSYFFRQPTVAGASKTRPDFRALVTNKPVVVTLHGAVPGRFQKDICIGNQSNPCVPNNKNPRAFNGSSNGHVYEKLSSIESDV
row,SMILES,IC50 [nM]
1,"Oc1ccc([C@@H](O)[C@@H]2CC[C@@H](CCc3ccccc3)N2)cc1O (racemic) [Example 5, 4-[(RS)-hydroxy-[(2SR,5RS)-5-phenethyl-pyrrolidin-2-yl]-methyl]-benzene-1,2-diol]",40
2,"COc1ccc(CC[C@@H]2CCC[C@H](Cc3ccc(O)cc3)N2)cc1 (racemic) [Example 6, (2RS,6SR)-4-[6-[2-(4-methoxy-phenyl)-ethyl]-piperidin-2-ylmethyl]-phenol]",45
3,"COc1ccc(CCC2CCC(C(=O)c3ccc(O)cc3)N2)cc1 (racemic) [Example 7, Mixture of (2RS,5RS)-- and (2RS,5SR)-(4-hydroxy-phenyl)-[5-[2-(4-methoxy-phenyl)-ethyl]-pyrrolidin-2-yl]-methanone]",70
4,"Oc1ccc([C@H]2OCCN3[C@@H](CCc4ccccc4)CC[C@H]23)cc1 (racemic) [Example 35, (1RS,6SR,8aRS)-4-(6-phenethyl-hexahydro-pyrrolo[2,1-c][1,4]oxazin-1-yl)-phenol]",90
5,"Oc1ccc([C@H]2OCN3[C@H](CCc4ccccc4)CC[C@@H]23)cc1 (racemic) [Example 37, (1RS ,5RS,7aSR)-4-(5-phenethyl-tetrahydro-pyrrolo[1,2-c]oxazol-1-yl)-phenol]",50

# Now from value to compound:
row,IC50 [nM],SMILES
1,40,"COc1ccc(CC[C@@H]2CC[C@H](Cc3ccc(O)cc3)N2)cc1 (racemic) [Example 4, (2RS,5RS)-4-[5-[2-(4-methoxy-phenyl)-ethyl]-pyrrolidin-2-ylmethyl]-phenol]"
2,30,"COc1ccc(CC[C@H]2CC[C@@H]([C@H](O)c3ccc(O)c(F)c3)N2)cc1 (racemic) [Example 2, 2-fluoro-4-[(RS)-hydroxy-[(2SR,5SR)-5-[2-(4-methoxy-phenyl)-ethyl]-pyrrolidin-2-yl]-methyl]-phenol]"
3,30,COc1ccc(CC[C@@H]2CCC[C@H](C(O)c3ccc(O)cc3)N2)cc1 (stereo partly shown) [Example 3]
4,20,"Oc1ccc([C@@H](O)[C@@H]2CC[C@@H](CCc3ccccc3)N2)cc1 (racemic) [Example 1, 4-[(RS)-hydroxy-[(2SR,5RS)-5-phenethyl-pyrrolidin-2-yl]-methyl]-phenol]"

# System: NMDA receptors
# Assay: not given
# Conditions: Journ. of Pharmacology, Vol. 283, No.8, 1285-1297; cited from earlier work
row,SMILES,demonstration of NMDA receptor block (in words)
1,"C[C@@H](CN1CCC(Cc2ccccc2)CC1)[C@@H](O)c1ccc(O)cc1 [RO 25-6981, [R-(R*,S*)]-a-(4-Hydroxy-phenyl)-b-methyl-4-(phenyl-methyl)-1-piperidine propanol]","highly selective, activity-dependent blocker of NMDA receptors"
